For this experiment, the target named is GLP-1R (Homo sapiens, UniProt P43220). The experiment is described as follows: GLP-1R Activation - cAMP Assay. The experiment is classed as cell-based. The settings on record: cAMP increase in CHO cells stably expressing GLP-1R; each compound run on one of the two cAMP assays (Assay 1 or Assay 2, not specified). The essentials: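 cAMP rise read by HTRF after 30 min agonist exposure (10-point titration, 37 °C) in HBSS/20 mM Hepes/0.1% BSA, following 1 h pre-incubation. Cells: stable GLP-1R CHO line, 1,000/well, seeded overnight. Sigmoidal fit of response vs log concentration gives EC50.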

SMILES strings stand for the structures.

By EC50 is commonly meant the concentration at which the effect is half-maximal. Higher therefore signals lower potency in that assay.

Chain of GLP-1R (P43220 24-463): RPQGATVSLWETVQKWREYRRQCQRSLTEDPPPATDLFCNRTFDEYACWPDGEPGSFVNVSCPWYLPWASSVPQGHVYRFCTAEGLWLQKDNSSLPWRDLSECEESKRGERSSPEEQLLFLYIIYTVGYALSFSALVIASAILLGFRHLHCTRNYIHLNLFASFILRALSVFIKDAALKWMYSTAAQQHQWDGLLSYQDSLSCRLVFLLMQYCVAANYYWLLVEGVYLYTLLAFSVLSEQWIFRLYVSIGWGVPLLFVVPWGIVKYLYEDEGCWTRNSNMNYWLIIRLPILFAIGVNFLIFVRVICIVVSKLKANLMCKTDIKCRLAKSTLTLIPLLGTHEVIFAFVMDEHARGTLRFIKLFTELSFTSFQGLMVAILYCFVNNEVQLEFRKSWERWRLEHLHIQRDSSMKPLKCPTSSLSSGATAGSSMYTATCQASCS

As to `COCCn1c(Cc2cc(F)c(-c3cccc(OCc4cc(F)ccc4F)n3)cc2F)nc2ccc(C(=O)O)cc21` [Example 26, 2-(4-(6-((2,5-difluorobenzyl)oxy)pyridin-2-yl)-2,5-difluorobenzyl)-1-(2-methoxyethyl)-1H-benzo[d]imidazole-6-carboxylic Acid], the EC50 was 18700 pM. Under `CC1(C)COC[C@H]1n1c(Cc2cc(F)c(-c3ccc(F)c(OCc4ccc(C#N)cc4F)n3)cc2F)nc2ccc(C(=O)O)cc21` [Example 496, (S)-2-(4-(6-((4-cyano-2-fluorobenzyl)oxy)-5-fluoropyridin-2-yl)-2,5-difluorobenzyl)-1-(4,4-dimethyltetrahydrofuran-3-yl)-1H-benzo[d]imidazole-6-carboxylic acid] stands 26 pM; under `CO[C@H]1COC[C@H]1n1c(Cc2cc(F)c(-c3ccc(F)c(OCc4ccc(Cl)cc4F)n3)cc2F)nc2ccc(C(=O)O)cc21` [Example 534, 2-(4-(6-((4-chloro-2-fluorobenzyl)oxy)-5-fluoropyridin-2-yl)-2,5-difluorobenzyl)-1-((3R,4R)-4-methoxytetrahydrofuran-3-yl)-1H-benzo[d]imidazole-6-carboxylic acid], 353 pM; under `Cn1nnc2cc(COc3cccc(-c4cc(F)c(Cc5nc6ccc(C(=O)O)cc6n5C[C@@H]5CCO5)cc4F)n3)ccc21` [Example 523, (S)-2-(2,5-difluoro-4-(6-((1-methyl-1H-benzo[d][1,2,3]triazol-5-yl)methoxy)pyridin-2-yl)benzyl)-1-(oxetan-2-ylmethyl)-1H-benzo[d]imidazole-6-carboxylic acid], 362 pM. In turn, `COc1cc(Cl)ncc1COc1nc(-c2cc(F)c(Cc3nc4c(F)cc(C(=O)O)cc4n3[C@@H]3COCC3(C)C)cc2F)ccc1F` [Example 340, (S)-2-(4-(6-((6-chloro-4-methoxypyridin-3-yl)methoxy)-5-fluoropyridin-2-yl)-2,5-difluorobenzyl)-1-(4,4-dimethyltetrahydrofuran-3-yl)-4-fluoro-1H-benzo[d]imidazole-6-carboxylic acid] came in with an EC50 of 5 pM. On to `CC1(C)COC[C@H]1n1c(Cc2c(F)cc(-c3cccc(OCc4ccc(Cl)cc4F)n3)c(F)c2F)nc2ccc(C(=O)O)cc21` [Example 247, (S)-2-(4-(6-((4-chloro-2-fluorobenzyl)oxy)pyridin-2-yl)-2,3,6-trifluorobenzyl)-1-(4,4-dimethyltetrahydrofuran-3-yl)-1H-benzo[d]imidazole-6-carboxylic acid], for which a half-maximal effect (EC50) was put at 151 pM. Under `CC1(C)COC[C@H]1n1c(Cc2cc(F)c(-c3ccc(F)c(OCc4ccc(C#N)cc4F)n3)cc2F)nc2ccc(C(=O)O)nc21` [Example 428, (S)-2-(4-(6-((4-cyano-2-fluorobenzyl)oxy)-5-fluoropyridin-2-yl)-2,5-difluorobenzyl)-3-(4,4-dimethyltetrahydrofuran-3-yl)-3H-imidazo[4,5-b]pyridine-5-carboxylic acid] stands 105 pM; under `CO[C@@H](C)Cn1c(Cc2cc(F)c(-c3cccc(OCc4ccc(C#N)cc4F)n3)cc2F)nc2c(F)cc(C(=O)O)cc21` [Example 518, (S)-2-(4-(6-((4-cyano-2-fluorobenzyl)oxy)pyridin-2-yl)-2,5-difluorobenzyl)-4-fluoro-1-(2-methoxypropyl)-1H-benzo[d]imidazole-6-carboxylic acid], 887 pM; under `CC1(C)COC[C@H]1n1c(Cn2cc(Cl)c(-c3cccc(OCc4ccc(C#N)cc4F)n3)cc2=O)nc2c(F)cc(C(=O)O)cc21` [Example 326, (S)-2-((5′-chloro-6-((4-cyano-2-fluorobenzyl)oxy)-2′-oxo-[2,4′-bipyridin]-1′(2′H)-yl)methyl)-1-(4,4-dimethyltetrahydrofuran-3-yl)-4-fluoro-1H-benzo[d]imidazole-6-carboxylic acid], 236 pM. On to `COCCn1c(Cc2cc(F)c(-c3cccc(OCc4cnc(Cl)cn4)n3)cc2F)nc2ccc(C(=O)O)cc21` [Example 24, 2-(4-(6-((5-chloropyrazin-2-yl)methoxy)pyridin-2-yl)-2,5-difluorobenzyl)-1-(2-methoxyethyl)-1H-benzo[d]imidazole-6-carboxylic Acid], for which the EC50 stood at 9960 pM. Under `CC1(C)COC[C@H]1n1c(Cc2cc(F)c(-c3cccc(OCc4ccc(Cl)cc4Cl)n3)cc2F)nc2ccc(C(=O)O)cc21` [Example 399, (S)-2-(4-(6-((2,4-dichlorobenzyl)oxy)pyridin-2-yl)-2,5-difluorobenzyl)-1-(4,4-dimethyltetrahydrofuran-3-yl)-1H-benzo[d]imidazole-6-carboxylic acid] stands 124 pM. Under `CC1(C)COC[C@H]1n1c(Cc2cc(F)c(-c3cccc(OCc4ccc(Cl)cc4F)n3)cc2F)nc2cc(Cl)c(C(=O)O)cc21` [Example 402, (S)-5-chloro-2-(4-(6-((4-chloro-2-fluorobenzyl)oxy)pyridin-2-yl)-2,5-difluorobenzyl)-1-(4,4-dimethyltetrahydrofuran-3-yl)-1H-benzo[d]imidazole-6-carboxylic acid] stands 561 pM. Under `CC1(C)COC[C@H]1n1c(Cc2cc(F)c(-c3cccc(OCc4ccc(C#N)cc4F)n3)cc2Cl)nc2ccc(C(=O)O)cc21` [Example 257, (S)-2-(2-chloro-4-(6-((4-cyano-2-fluorobenzyl)oxy)pyridin-2-yl)-5-fluorobenzyl)-1-(4,4-dimethyltetrahydrofuran-3-yl)-1H-benzo[d]imidazole-6-carboxylic acid] stands 64 pM. `COCCn1c(Cc2cc(F)c(-c3cccc(OCc4ccc(-n5ccnc5)nc4)n3)cc2F)nc2ccc(C(=O)O)cc21` [Example 95, 2-(4-(6-((6-(1H-imidazol-1-yl)pyridin-3-yl)methoxy)pyridin-2-yl)-2,5-difluorobenzyl)-1-(2-methoxyethyl)-1H-benzo[d]imidazole-6-carboxylic Acid] had an EC50 of 970 pM. Under `CC1(C)COC[C@H]1n1c(Cc2cc(F)c(-c3cccc(OCc4ccc(C#N)cc4)n3)cc2F)nc2cnc(C(=O)O)cc21` [Example 421, (S)-2-(4-(6-((4-cyanobenzyl)oxy)pyridin-2-yl)-2,5-difluorobenzyl)-1-(4,4-dimethyltetrahydrofuran-3-yl)-1H-imidazo[4,5-c]pyridine-6-carboxylic acid] stands 3020 pM; under `COC(=O)N1Cc2ccc(COc3nc(-c4cc(F)c(Cc5nc6c(F)cc(C(=O)O)cc6n5C[C@@H]5CCO5)cc4F)ccc3F)cc2C1` [Example 515, (S)-2-(2,5-difluoro-4-(5-fluoro-6-((2-(methoxycarbonyl)isoindolin-5-yl)methoxy)pyridin-2-yl)benzyl)-4-fluoro-1-(oxetan-2-ylmethyl)-1H-benzo[d]imidazole-6-carboxylic acid], 74 pM. Under `CC1(C)COCC1n1c(Cc2cc(F)c(-c3cccc(OCc4cnc(Cl)cn4)n3)cc2F)nc2ccc(C(=O)O)cc21` (stereo not drawn) [Example 93, 2-(4-(6-((5-chloropyrazin-2-yl)methoxy)pyridin-2-yl)-2,5-difluorobenzyl)-1-(4,4-dimethyltetrahydrofuran-3-yl)-1H-benzo[d]imidazole-6-carboxylic Acid] stands 350 pM. Under `COCCn1c(Cc2c(F)cc(-c3cccc(OCc4ccc(Cl)cc4F)n3)c(F)c2F)nc2c(F)cc(C(=O)O)cc21` [Example 251, 2-(4-(6-((4-chloro-2-fluorobenzyl)oxy)pyridin-2-yl)-2,3,6-trifluorobenzyl)-4-fluoro-1-(2-methoxyethyl)-1H-benzo[d]imidazole-6-carboxylic acid] stands 79 pM. `CO[C@@H]1COC[C@@H]1n1c(Cc2cc(F)c(-c3cccc(OCc4ccc(C#N)cc4F)n3)cc2F)nc2ccc(C(=O)O)cc21` (single isomer, unassigned) [Example 275]: the EC50 came to 168 pM. The molecule `CC[C@@H]1OCC[C@H]1n1c(Cc2cc(F)c(-c3cccc(OCc4ccc(C#N)cc4F)n3)cc2F)nc2ccc(C(=O)O)cc21` [Example 197, 2-(4-(6-((4-cyano-2-fluorobenzyl)oxy)pyridin-2-yl)-2,5-difluorobenzyl)-1-((2S,3R)-2-ethyltetrahydrofuran-3-yl)-1H-benzo[d]imidazole-6-carboxylic acid] returned an EC50 of 6620 pM.

As for `CO[C@@H]1COCC1n1c(Cc2cc(F)c(-c3cccc(OCc4ccc(C#N)cc4F)n3)cc2F)nc2c(F)cc(C(=O)O)cc21` (mixture of isomers) [Example 256, 2-(4-(6-((4-cyano-2-fluorobenzyl)oxy)pyridin-2-yl)-2,5-difluorobenzyl)-4-fluoro-1-((4S)-4-methoxytetrahydrofuran-3-yl)-1H-benzo[d]imidazole-6-carboxylic acid], the response was half-maximal at 117 pM (EC50). Under `N#Cc1ccc(COc2cccc(-c3cc(F)c(Cc4nc5ccc(C(=O)O)cc5n4[C@@H]4COC[C@@H]4COC(F)F)cc3F)n2)c(F)c1` [Example 185, 2-(4-(6-((4-cyano-2-fluorobenzyl)oxy)pyridin-2-yl)-2,5-difluorobenzyl)-1-((3S,4R)-4-((difluoromethoxy)methyl)tetrahydrofuran-3-yl)-1H-benzo[d]imidazole-6-carboxylic Acid] stands 594 pM. Turning to `COCCn1c(Cc2cc(F)c(-c3cccc(OCc4cnc(Cl)cc4OC)n3)cc2F)nc2c(F)cc(C(=O)O)cc21` [Example 291, 2-(4-(6-((6-chloro-4-methoxypyridin-3-yl)methoxy)pyridin-2-yl)-2,5-difluorobenzyl)-4-fluoro-1-(2-methoxyethyl)-1H-benzo[d]imidazole-6-carboxylic acid], a half-maximal effect (EC50) was put at 76 pM.

In turn, `CC1(C)COC[C@H]1n1c(Cc2cc(F)c(-c3cccc(OCc4cc(F)c(Cl)cc4F)n3)cc2F)nc2ccc(C(=O)O)cc21` [Example 490, (S)-2-(4-(6-((4-chloro-2,5-difluorobenzyl)oxy)pyridin-2-yl)-2,5-difluorobenzyl)-1-(4,4-dimethyltetrahydrofuran-3-yl)-1H-benzo[d]imidazole-6-carboxylic acid] displayed an EC50 of 182 pM.

(Values after patent publication US12570642B2, “GLP-IR modulating compounds” (Gilead Sciences, Inc., priority 2021, dated 2026).)
